In US6573243B1, “Pompilid wasp-derived neuropeptides” (Suntory Limited, priority 1997, dated 2003):

Test system: nerve-muscle junction of a lobster's walking leg
Assay: Effect on excitatory postsynaptic potential (EPSP) in the neuromuscular specimen of a lobster's walking leg
Settings: for concentration at which the peptide enhanced EPSP: sample dissolved in artificial seawater on the nerve-muscle junction side, excitatory nerve electrically stimulated; for biological activity of the synthetic peptide compared with the natural peptide: synthetic vs natural peptide
Protocol: The biological activity of the present peptides can be assayed according to the methods described in Japanese Patent Laid-Open No. 4-198161, in which excitatory postsynaptic potential (EPSP) is generated in the neuromuscular specimen of a lobster's walking leg, and the effect of the compound given to the nerve fibers on the EPSP is determined.
In general, substances inhibiting EPSP are believed to be glutamate antagonists or inhibitors for the release of glutamic acid, and the substances enhancing EPSP are believed to be glutamate-like agonists or accelerators for the release of glutamic acid.
The effect of the present peptides on excitatory postsynaptic potential (EPSP) was measured according to the method disclosed in Japanese Patent Laid-Open No. 4-198161. Thus, the shell of a lobster's walking leg was removed to expose the excitatory nerve and the inhibitory nerve, and a stimulating electrode was attached thereto. Then the nerve-muscle junction was exposed, and a recording electrode was attached thereto. The walking leg equipped with the electrodes was transferred to a container filled with an artificial seawater, and a partition was set up between the stimulating electrode part and the recording electrode part. The samples to be measured were dissolved into the artificial seawater in the recording electrode side (i.e., the side containing the nerve-muscle junction). Subsequently, the excitatory nerve was electrically stimulated and the EPSP, which was induced by glutamic acid released from the nerve end in response to the stimulation, was recorded.

H-Arg-Ile-Lys-Ile-Gly-Leu-Phe-Asp-Gln-Leu-Ser-Lys-Leu-NH2 (H-RIKIGLFDQLSKL-NH2) [peptide (1)]
concentration at which the peptide enhanced EPSP: 1000 nM | biological activity of the synthetic peptide compared with the natural peptide: same biological activity as the natural peptides

H-Arg-Ile-Lys-Ile-Gly-Leu-Phe-Asp-Gln-Leu-Ser-Arg-Leu-NH2 (H-RIKIGLFDQLSRL-NH2) [peptide (97)]
concentration at which the peptide enhanced EPSP: 200 nM | biological activity of the synthetic peptide compared with the natural peptide: same biological activity as the natural peptides
